From patent US9540647B2, “Methods and compositions for the treatment of cancer” (University of South Alabama, priority 2010, dated 2017) come the findings set out here.

“Also recorded” adds a separate entry of the source.

Assay [1] has as its system OPN, MMP9, and Cathepsin K (CTSK). As to the kind of experiment: OPN, MMP9 and Cathepsin K expression in osteoclasts (qRT-PCR). Format: cell-based, murine. To be noted: osteoclasts with breast cancer conditioned medium; relative to DM. For orientation: Real-time PCR tracks product formation cycle by cycle.
Description: Quantitative RT-PCR (qRT-PCR)—cDNA was generated using High Capacity Reverse Transcriptase Kit (Applied Biosystems, Foster City, Calif.). Real time PCR was performed in two cycles using a BioRad iQ5 Real-Time Detection system (Bio-Rad, Hercules, Calif.): the first cycle of 95° C. for 10 mins followed by 40 repeats of the second cycle comprising 95° C. for 15 sec followed by 60° C. for 1 min. All reactions were done in triplicate. Transcript levels were normalized to GAPDH levels (dCT) which was used to calculate changes in gene expression (2-ddCT). […] Following the experimental regime as described herein (for Osteoclast differentiation/activity) RNA was isolated using Trizol (Invitrogen) and assessed as described herein. The details of the primers used were as follows: OPN (Spp1; Mm00436767_m1), Matrixmetalloprotease 9 (MMP9; Mm00600163_m1), Cathepsin K (Ctsk; Mm00484036_m1), SHH (Hs00179843_m1), GLI1 (Hs01110766_m1), OPN (Hs00959010_m1), hGAPDH (Hs99999905_m1) and GAPDH (Mm99999915_g1).
In another assay the test system is SHH and IHH. Kind of assay: SHH and IHH protein expression in A2780 and A2780-CP70 cells (Western blot). Format: cell-based, human. To be noted: cyclopamine.
In assay [2] the test system is RAW264.7 cells. As to the kind of experiment: Osteoclast resorption activity (OAAS plates). Type of assay: cell-based, murine. Here is the method: Osteoclast differentiation and activity assays—Tartarate-resistant acid phosphatase (TRAP) assay was conducted for RAW 264.7 following the manufacturer's protocol (Sigma, St. Louis, Mo.). This assay was indicative of the extent of differentiation. OAAS plates (Osteogenic Core Technologies, Choongnam, Republic of Korea) were utilized to measure osteoclastic activity. RAW 264.7 cells (25×103) were inoculated in 48-well plates. Cells were treated with serum-free conditioned media from breast cancer cells or 100 nM SHH or 100 ng/ml OPN on the following day. Media was changed every two days and the experiments were terminated either on day 6 (day 7 for knockdown experiments, with transfections being done on the sixth day). At the completion, cells were detached with 5% sodium hypochlorite and the wells were observed under a Nikon Eclipse TS 100 microscope at 10× magnification. […] The percentage of area resorbed was calculated using the NIS-Elements BR. 3.1 software.

In assay [3] the test system is RAW264.7 cells. Kind of assay: Osteoclast differentiation (TRAP assay). Format: cell-based, murine. On the procedure:
Cell lines—Human metastatic breast cancer cells, MDA-MB-231, were cultured in Dulbecco's Modified Eagle's Medium (DMEM/F12; Invitrogen, Carlsbad, Calif.), supplemented with 2 mM L-glutamine, 1 mM sodium pyruvate, 0.02 mM non-essential amino acids, 5% fetal bovine serum, FBS (Atlanta Biologicals, Norcross, Ga.), without antibiotics or antimycotics (cDME/F12). SUM1315 and SUM159 cells (DiMeo, T. A., et al. (2009) Cancer Res 69, 5364-5373) (Asterand, Detroit, Mich.) were cultured in DMEM/F12 supplemented with […], 5% FBS (Atlanta Biologicals) and either 10 ng/ml EGF or 1 ng/ml hydrocortisone, without antibiotics or antimycotics. The SUM1315 cells are derived from a metastasis in a patient with infiltrating ductal carcinoma; SUM159 cells were derived from a primary breast tumor with metaplastic carcinoma. RAW264.7 (ATCC, TIB 71) cells, a murine pre-osteoclastic line capable of differentiation and […] in culture (in presence of RANKL and MCSF), were grown in DMEM with L-glutamine (ATCC, 30-2002) supplemented with 10% FBS. A 2× differentiation medium (DM) was formulated for the RAW 264.7 cells comprising RAW264.7 growth medium supplemented with 20% FBS, RANKL (100 ng/ml) and M-CSF (40 ng/ml) (Matsubara, T., et al. J Bone Miner Res 25, 1068-1076). Conditioned media was harvested from breast cancer cells and mixed in a 1:1 ratio with double strength differentiation medium to assess the effect on osteoclast differentiation. 1×DM was used as control or wherever SHH (R & D Systems, Minneapolis, Minn.) or OPN (R & D Systems) was used alone. The medium on the RAW264.7 cells was replenished every 48 hours. In order to assess the effect of secreted Hh ligands, the neutralizing 5E1 antibody was used (Developmental Studies Hybridoma Bank, at the University of Iowa, Iowa). […] Medium was supplemented with 5E1 (2.5 μg/ml) and was changed on alternate days until the end of the experiment. The effect of OPN on osteoclast activity was assessed by transfecting an OPN shRNA-expressing construct on day 6 post-induction of differentiation. Fresh DM was added the following day and cells were allowed to grow for another 12 hours before termination of experiment. GLI1 expression was silenced in the SUM1315 cells using shRNA targeting GLI1 into pSuperior. gfp+neo (Oligoengine, WA, USA). Silencing of OPN expression was done using OPN-targeting shRNA cloned into pSuper (Oligoengine)
Osteoclast differentiation and activity assays—Tartarate-resistant acid phosphatase (TRAP) assay was conducted for RAW 264.7 following the manufacturer's protocol (Sigma, St. Louis, Mo.). This assay was indicative of the extent of differentiation. […] The percentage of area resorbed was calculated using the NIS-Elements BR. […]

Another assay has as its system OPN mRNA. Kind of assay: OPN transcript levels by real-time RT-PCR in metastatic melanoma cell lines. Type of assay: cell-based, human. To be noted: for levels of OPN mRNA: cyclopamine 24 h, qRT-PCR. Here is the method:
This medium was replaced with fresh cyclopamine-containing medium after 12 h. […] RNA was assessed by real-time RT-PCR for OPN transcript levels.
Stable vector only and non-targeting (scrambled control) transfectants were also generated. Stable transfectants were selected on medium supplemented with 500 μg/ml Geneticin (Invitrogen). The four GLI1-knocked down clones chosen were based on the extent of GLI1 knockdown and were termed KO1, KO2, KO3, and KO4. The expression of OPN was restored in the KO1 cells by transfecting with pcDNA3.1-OPN. A corresponding vector-only transfectant was also generated. Transfectants were selected on medium containing Geneticin (500 μg/ml) and hygromycin (750 μg/ml). Serum-free conditioned medium harvested from approximately 3.0×10^6 cells after 24 hr was assayed for OPN by immunoblotting.
Quantitative RT-PCR (qRT-PCR)—cDNA was generated using High Capacity Reverse Transcriptase Kit (Applied Biosystems, Foster City, Calif.). Real time PCR was performed using a Bio-Rad iQ5 Real-Time Detection system (Bio-Rad). All reactions were done as three independent replicates. All assays were done using the TaqMan Gene Expression Assays from Applied Biosystems. OPN (SPP1: Hs 00959010_m1) transcript levels were normalized to glyceraldehyde-3-phosphate dehydrogenase (Hs 99999905_m1) levels (δCT), which was used to calculate changes in OPN expression (2^−δδCT). […] GLI1 and SHH (Hs 00179843_m1) expressions were also similarly assessed with glyceraldehyde-3-phosphate dehydrogenase as an endogenous control. To analyze the knockdown effectiveness, “scrambled transfectants” of MDA-MB-435 was set as calibrator.

The test system of the next assay is ERCC1, XPD, XRCC1. Kind of assay: ERCC1, XPD and XRCC1 mRNA levels in A2780-CP70 cells (semi-quantitative PCR). Type of assay: cell-based, human. To be noted: single agent at levels associated with 50% cell killing; 6-72 hr.
Another assay deals with c-jun and c-fos mRNA. As to the kind of experiment: c-jun and c-fos mRNA expression in A2780-CP70 cells (semi-quantitative PCR). Format: cell-based, human. To be noted: 70 μM cyclopamine.

Regarding `CC1=C2C[C@H]3[C@@H](CC=C4C[C@@H](O)CC[C@@]43C)[C@@H]2CC[C@]12O[C@@H]1C[C@H](C)CN[C@H]1[C@H]2C` [cyclopamine], in assay [1], the “levels of CTSK” value was “significantly decreased”. In assay [1], the “levels of MMP9” value is “significantly decreased”. The “levels of OPN” value in assay [1] is “significantly decreased”. Further, the IHH protein levels result in the assay on SHH and IHH (24 hr) is on record as “reduced”; with SHH and IHH (48 hr and 72 hr), “rebounded”. The SHH protein levels entry is “reduced” in the assay on SHH and IHH (24 hr); “rebounded” in the assay on SHH and IHH (48 hr and 72 hr). For the same molecule, the “ability of osteoclasts to resorb matrix” value with RAW264.7 cells [2] (cyclopamine (20 μM), stimulated with breast cancer conditioned medium) is “significantly (*p<0.0001) compromises their ability to resorb matrix”. Moreover, the “ability of tumor cells to induce osteoclast differentiation” value with RAW264.7 cells [3] (conditioned medium from MDA-MB-435 cells treated with cyclopamine) is reported as “significant reduction”. In addition, in the assay with RAW264.7 cells [3] (cyclopamine (20 μM), DM and breast cancer cell-conditioned medium), the “ability of osteoclasts to differentiate” value is “significantly (*p<0.0001) compromises their ability to differentiate”. Besides, the “levels of OPN mRNA” value in the assay with OPN mRNA (MCC012A cells) is reported as “decreases the levels of OPN mRNA”; in the assay with OPN mRNA (MCC012F cells), “decreases the levels of OPN mRNA”; with OPN mRNA (MDA-MB-435 cells) it was “decreases the levels of OPN mRNA in a dose-dependent manner”. The “mRNAs for ERCC1, XPD, or XRCC1” value in the assay on ERCC1, XPD, XRCC1 is “no increase”. The “c-fos mRNA levels, peak over 0 hr” value in the assay on c-jun and c-fos mRNA turned out to be 27 fold. For the same molecule, the “c-jun mRNA levels, increase” value in the assay with c-jun and c-fos mRNA (6 hr) came to 3 fold. Moreover, in the assay on c-jun and c-fos mRNA (24 hr (peak)), the “c-jun mRNA levels, increase over 0 hr” value came to 13 fold.

For “SHH: recombinant Sonic Hedgehog ligand (R & D Systems)”, the “resorption activity of differentiated osteoclasts” value in the assay with RAW264.7 cells [2] (DM with OPN (100 ng/ml) or SHH (100 nM)) was “significantly (* indicates p<0.001) increases the resorption activity”. Besides, the “numbers of multinucleate TRAP-positive cells” value with RAW264.7 cells [3] (DM supplemented with OPN (100 ng/ml) or SHH (100 nM) vs DM) is “potentiates differentiation; also recorded: stimulate osteoclast differentiation; also recorded: significantly (* indicates p<0.005) increases”. In addition, the “OPN transcript levels, rescue of cyclopamine inhibition” value in the assay on OPN mRNA (MDA-MB-435 cells, cyclopamine 20 μM, after 12 hr medium with recombinant SHH (100 nM)) is on record as “able to rescue the inhibitory effects of cyclopamine”.
